Test results as given in PubChem BioAssay AID330 (DTP/NCI, 2004).
“And” between values parts separate entries of the source, which are not always exact repeats. Equal values may be shown once. Toxic doses and inconclusive results are not listed. How the source made its calls: active means survival T/C of 150% or more; inactive means T/C below 125% in these data. Peptide text beside a SMILES is read from it.

System: P388 leukemia ip, CD2F1 mice, survival T/C
Assay: NCI In Vivo Anticancer Drug Screen. Data for tumor model P388 Leukemia (intraperitoneal) in CD2F1 (CDF1) mice
Conditions: endpoint: median survival time, higher = longer survival
Procedure, shortened: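 Mice carrying the transplanted tumor received test compound or vehicle. Survival was recorded in each group, and the value is the treated-group measurement divided by that of the vehicle-treated control group.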

[1] = dose: 50.0 mg/kg/injection, schedule: Q01DX009 (ip), vehicle: saline with Tween-80
[2] = dose: 100.0 mg/kg/injection, schedule: Q01DX009 (ip), vehicle: saline with Tween-80
[3] = dose: 50.0 mg/kg/injection, schedule: Q01DX009 (ip), vehicle: saline
[4] = dose: 100.0 mg/kg/injection, schedule: Q01DX009 (ip), vehicle: saline
[5] = dose: 200.0 mg/kg/injection, schedule: Q01DX009 (ip), vehicle: saline
[6] = dose: 12.5 mg/kg/injection, schedule: Q01DX009 (ip), vehicle: saline
[7] = dose: 60.0 mg/kg/injection, schedule: Q01DX005 (ip), vehicle: Klucel (hydroxypropylcellulose) (HPC)
[8] = dose: 120.0 mg/kg/injection, schedule: Q01DX005 (ip), vehicle: Klucel (hydroxypropylcellulose) (HPC)
[9] = dose: 50.0 mg/kg/injection, schedule: Q01DX009 (ip), vehicle: Klucel (hydroxypropylcellulose) (HPC)
[10] = dose: 100.0 mg/kg/injection, schedule: Q01DX009 (ip), vehicle: Klucel (hydroxypropylcellulose) (HPC)

Measured: T/C

Cc1ccc(S(=O)(=O)NC(CN)C(=O)O)cc1 (centres undefined)
inactive: dose: 25.0 mg/kg/injection, schedule: Q01DX009 (ip), vehicle: other 104 % of control | dose: 50.0 mg/kg/injection, schedule: Q01DX009 (ip), vehicle: other 101 % of control | dose: 100.0 mg/kg/injection, schedule: Q01DX009 (ip), vehicle: other 101 % of control | dose: 200.0 mg/kg/injection, schedule: Q01DX009 (ip), vehicle: other 107 % of control | dose: 400.0 mg/kg/injection, schedule: Q01DX009 (ip), vehicle: other 104 % of control

CC1CN(C(=O)Nc2c(C(C)C)cccc2C(C)C)CC(C)O1 (centres undefined)
inactive: [1] 96 % of control | [2] 90 % of control

CCCc1[nH]n(-c2cccc([N+](=O)[O-])c2)c(=O)c1N=Nc1ccc(Cl)cc1
inactive: [3] 93 % of control | [4] 90 % of control | [5] 87 % of control

CC(/C=C/c1ccc(Cl)c(Cl)c1)=N\NC(N)=S
inactive: dose: 60.0 mg/kg/injection, schedule: Q01DX005 (ip), vehicle: saline with Tween-80 121 % of control

CCOC(=O)/C(=C\c1ccccc1)O/C(=C/c1ccccc1)C(=O)OCC
inactive: dose: 12.5 mg/kg/injection, schedule: Q04DX002 (ip), vehicle: saline with Tween-80 100 % of control | dose: 25.0 mg/kg/injection, schedule: Q04DX002 (ip), vehicle: saline with Tween-80 97 % of control | dose: 50.0 mg/kg/injection, schedule: Q04DX002 (ip), vehicle: saline with Tween-80 99 % of control

CCCC(C)/C=C(\C)C(O)C(C)/C=C/CCC(O)C(C)C(O)C(C)C(O)C(C)C1OC(C(C)C(=O)OC)CCC1C (centres undefined)
inactive: dose: 12.5 mg/kg/injection, schedule: Q01DX005 (ip), vehicle: dimethyl formamide 111 % of control | dose: 25.0 mg/kg/injection, schedule: Q01DX005 (ip), vehicle: dimethyl formamide 108 % of control | dose: 50.0 mg/kg/injection, schedule: Q01DX005 (ip), vehicle: dimethyl formamide 102 % of control

c1cc2n(n1)CCN2
inactive: [6] 104 % of control | dose: 25.0 mg/kg/injection, schedule: Q01DX009 (ip), vehicle: saline 109 % of control | [3] 100 % of control and 104 % of control | dose: 80.0 mg/kg/injection, schedule: Q01DX009 (ip), vehicle: saline 111 % of control | [4] 111 % of control and 120 % of control | dose: 120.0 mg/kg/injection, schedule: Q01DX009 (ip), vehicle: saline 113 % of control | [5] 100 % of control | dose: 225.0 mg/kg/injection, schedule: Q03DX003 (ip), vehicle: saline 111 % of control | dose: 264.0 mg/kg/injection, schedule: Q04DX003 (ip), vehicle: saline 100 % of control | dose: 300.0 mg/kg/injection, schedule: Q03DX003 (ip), vehicle: saline 111 % of control | dose: 375.0 mg/kg/injection, schedule: Q03DX003 (ip), vehicle: saline 124 % of control | dose: 400.0 mg/kg/injection, schedule: Q04DX003 (ip), vehicle: saline 118 % of control

O=C/C(=C\O)NC(=O)c1ccccc1C(=O)O
inactive: [7] 99 % of control | [8] 99 % of control | dose: 240.0 mg/kg/injection, schedule: Q01DX005 (ip), vehicle: Klucel (hydroxypropylcellulose) (HPC) 92 % of control

O=C1C=CC2(C=C1)CCN(C(=O)C(F)(F)F)Cc1cc3c(cc12)OCO3
inactive: dose: 100.0 mg/kg/injection, schedule: Q04DX002 (ip), vehicle: saline with Tween-80 97 % of control | dose: 200.0 mg/kg/injection, schedule: Q04DX002 (ip), vehicle: saline with Tween-80 91 % of control | dose: 400.0 mg/kg/injection, schedule: Q04DX002 (ip), vehicle: saline with Tween-80 93 % of control

Cc1ccc2c(c1)C(C(F)(F)F)(C(F)(F)F)OC(C(F)(F)F)(C(F)(F)F)N2
inactive: dose: 50.0 mg/kg/injection, schedule: Q04DX003 (ip), vehicle: saline with Tween-80 104 % of control | dose: 100.0 mg/kg/injection, schedule: Q04DX003 (ip), vehicle: saline with Tween-80 100 % of control | dose: 200.0 mg/kg/injection, schedule: Q04DX003 (ip), vehicle: saline with Tween-80 108 % of control

C=CCC1(COS(N)(=O)=O)OC(n2cnc3c(N)ncnc32)C(O)C1O (centres undefined)
inactive: dose: 50.0 mg/kg/injection, schedule: Q01DX001 (ip), vehicle: saline 101 % of control | dose: 100.0 mg/kg/injection, schedule: Q01DX001 (ip), vehicle: saline 101 % of control | dose: 200.0 mg/kg/injection, schedule: Q01DX001 (ip), vehicle: saline 111 % of control | dose: 400.0 mg/kg/injection, schedule: Q01DX001 (ip), vehicle: saline 99 % of control

CN(C)Cc1cccc(CN(C)C)[c]1[Sn]([Br])([c]1ccccc1)[c]1ccccc1
inactive: dose: 1.56 mg/kg/injection, schedule: Q01DX009 (ip), vehicle: saline 104 % of control | dose: 3.12 mg/kg/injection, schedule: Q01DX009 (ip), vehicle: saline 106 % of control | [6] 120 % of control

CNC(=S)N/N=C/Cn1cc([N+](=O)[O-])c(=O)[nH]c1=O
inactive: dose: 50.0 mg/kg/injection, schedule: Q01DX005 (ip), vehicle: Klucel (hydroxypropylcellulose) (HPC) 98 % of control | dose: 100.0 mg/kg/injection, schedule: Q01DX005 (ip), vehicle: Klucel (hydroxypropylcellulose) (HPC) 100 % of control

NC(Cc1ccccc1)C(=O)NC(Cc1ccccc1)C(=O)O (stereo not drawn) (H-Phe-Phe-OH; configuration not given here)
inactive: [3] 96 % of control | [4] 99 % of control | [5] 94 % of control

Cc1ccc(S(=O)(=O)OC2CCN(C(=O)OCc3ccccc3)CC2)cc1
inactive: [1] 95 % of control | [2] 98 % of control | dose: 200.0 mg/kg/injection, schedule: Q01DX009 (ip), vehicle: saline with Tween-80 98 % of control

COc1oc(C2C/C(=C/C(C)=C/C(C)=C/C(C)=C/c3ccc([N+](=O)[O-])cc3)CO2)c(C)c(=O)c1C (centres undefined)
inactive: dose: 0.25 mg/kg/injection, schedule: Q01DX005 (ip), vehicle: saline 116 % of control | dose: 0.5 mg/kg/injection, schedule: Q01DX005 (ip), vehicle: saline 107 % of control | dose: 1.0 mg/kg/injection, schedule: Q01DX005 (ip), vehicle: saline 113 % of control | dose: 2.0 mg/kg/injection, schedule: Q01DX005 (ip), vehicle: saline 121 % of control

O=C1Nc2ccccc2C(O)(c2ccccc2)N1Cc1ccccc1 (centres undefined)
inactive: dose: 6.25 mg/kg/injection, schedule: Q01DX009 (ip), vehicle: saline with Tween-80 91 % of control | dose: 12.5 mg/kg/injection, schedule: Q01DX009 (ip), vehicle: saline with Tween-80 100 % of control | dose: 25.0 mg/kg/injection, schedule: Q01DX009 (ip), vehicle: saline with Tween-80 88 % of control | [5] 87 % of control

CN(C)c1cc(N(C)C)c2cc(-c3ccccc3)sc2n1
inactive: [9] 98 % of control | [10] 103 % of control | dose: 200.0 mg/kg/injection, schedule: Q01DX009 (ip), vehicle: Klucel (hydroxypropylcellulose) (HPC) 96 % of control

COC(=O)c1ccc(C(=O)OC)c2nn3c(N)nnc3nc12
inactive: dose: 60.0 mg/kg/injection, schedule: Q01DX005 (ip), vehicle: saline 110 % of control | dose: 120.0 mg/kg/injection, schedule: Q01DX005 (ip), vehicle: saline 100 % of control | dose: 240.0 mg/kg/injection, schedule: Q01DX005 (ip), vehicle: saline 100 % of control

CCn1c(=O)n(C)c(=O)c2[nH]c(Cl)nc21
inactive: dose: 16.0 mg/kg/injection, schedule: Q01DX009 (ip), vehicle: Klucel (hydroxypropylcellulose) (HPC) 105 % of control | dose: 25.0 mg/kg/injection, schedule: Q01DX009 (ip), vehicle: Klucel (hydroxypropylcellulose) (HPC) 92 % of control | dose: 32.0 mg/kg/injection, schedule: Q01DX009 (ip), vehicle: Klucel (hydroxypropylcellulose) (HPC) 104 % of control | [9] 91 % of control | dose: 64.0 mg/kg/injection, schedule: Q01DX009 (ip), vehicle: Klucel (hydroxypropylcellulose) (HPC) 97 % of control | [10] 94 % of control

Cc1nc2oc(=O)cc(C)c2c(=O)[nH]1
inactive: [7] 91 % of control | [8] 96 % of control

S=C(NCCCN1CCN(CCCNC(=S)Nc2c3ccccc3nc3ccccc23)CC1)Nc1c2ccccc2nc2ccccc12
inactive: dose: 6.25 mg/kg/injection, schedule: Q01DX005 (ip), vehicle: saline with Tween-80 98 % of control | dose: 12.5 mg/kg/injection, schedule: Q01DX005 (ip), vehicle: saline with Tween-80 100 % of control and 110 % of control | dose: 25.0 mg/kg/injection, schedule: Q01DX005 (ip), vehicle: saline with Tween-80 114 % of control and 116 % of control | dose: 50.0 mg/kg/injection, schedule: Q01DX005 (ip), vehicle: saline with Tween-80 119 % of control and 120 % of control
